Our source for the IC50 values is ChEMBL document CHEMBL4007392, “Modulating Mineralocorticoid Receptor with Non-steroidal Antagonists. New Opportunities for the Development of Potent and Selective Ligands without Off-Target Side Effects” (J Med Chem, 2017).

The structures appear in SMILES notation. Some results are limits rather than exact numbers.

In this experiment the target is T1, Glucocorticoid receptor (Homo sapiens, UniProt P04150).
T1 sequence (P04150 whole entry): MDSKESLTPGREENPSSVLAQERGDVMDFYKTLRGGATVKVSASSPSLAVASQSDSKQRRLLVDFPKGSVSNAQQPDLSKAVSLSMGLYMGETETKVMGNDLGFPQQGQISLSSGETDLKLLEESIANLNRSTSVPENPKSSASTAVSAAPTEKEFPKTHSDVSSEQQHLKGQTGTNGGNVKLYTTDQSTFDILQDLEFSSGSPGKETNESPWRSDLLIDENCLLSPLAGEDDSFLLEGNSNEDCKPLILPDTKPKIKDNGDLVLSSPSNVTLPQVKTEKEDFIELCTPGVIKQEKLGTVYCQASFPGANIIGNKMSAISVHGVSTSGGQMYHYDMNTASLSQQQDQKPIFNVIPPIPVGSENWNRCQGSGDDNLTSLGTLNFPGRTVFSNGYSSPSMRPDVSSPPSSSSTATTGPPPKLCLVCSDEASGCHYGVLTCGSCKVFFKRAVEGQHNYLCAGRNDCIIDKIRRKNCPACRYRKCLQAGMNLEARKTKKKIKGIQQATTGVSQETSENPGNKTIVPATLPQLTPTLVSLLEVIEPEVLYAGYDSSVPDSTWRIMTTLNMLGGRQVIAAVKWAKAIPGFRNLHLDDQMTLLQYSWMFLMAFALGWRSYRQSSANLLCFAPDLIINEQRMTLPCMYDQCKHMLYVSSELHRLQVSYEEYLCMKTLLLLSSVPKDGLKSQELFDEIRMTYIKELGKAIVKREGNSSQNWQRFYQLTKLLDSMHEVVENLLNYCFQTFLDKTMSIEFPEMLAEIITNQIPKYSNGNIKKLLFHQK
Kind of experiment: Antagonist activity at GAL4-fused human GR LBD (443 to 777 residues) expressed in CHO-K1 cells assessed as inhibition of dexamethasone-induced transactivation activity after 5 to 6 hrs by luciferase reporter gene assay. Type of experiment: cell-based.

In general, IC50 refers to the concentration needed to halve the response being measured.

Regarding `CCOc1ncc(C)c2c1[C@H](c1ccc(C#N)cc1OC)C(C(N)=O)=C(C)N2` [FINERENONE], the IC50 was ≥ 10 µM.
